Read-outs that look alike come from different tables or passages of the source.

Assay [1] relates to Pseudomonas DacB Mutant (hiperproducing AMPC). The assay can be described thus: Silver-antibiotics interaction study, MicroScan (Example 4). The format is cell-based, Pseudomonas aeruginosa. The settings on record: subinhibitory colloidal silver (½ or 1/10 MIC). Here is the method: (§1) The effect of subinhibitory concentrations of colloidal silver (namely, ½ and 1/10 dilution of the MIC obtained in Example 3) in the presence of different types of antibiotics was tested.
(§2) For this, an automated equipment MicroScan AutoScan 4 (Siemens) was used, using Gram negative (Becman Coulter NM37) and Gram positive (Becman Coulter PM28) cards.
(§3) Each of these broths served as inoculum for the cards with antibiotics (for each strain, thus 3 cards were prepared). • Incubating the plates with antibiotics (in presence and absence of silver) at 37° C. for 24 h. • Reading the cards by use of LabPro software, and interpretation of the obtained values of MIC (determine if the silver reduces the initial MCI of each antibiotic).

Assay [2] concerns S. aureus Sa-13 (strain 12). Put plainly: Epsilometry E-test, absence and presence of silver (Example 5). The format is cell-based. The settings on record: Staphylococcus aureus, strain 12 (S. aureus Sa-13). Here is the method: (§4) In order to evaluate the synergy of collargol-antibiotics an epsilometry E-test was carried out. Said test is based on the agar diffusion method and relates to using a strip with a predefined steady gradient of 15 concentrations of the antibiotic being tested. After strain growth, an elliptical inhibition halo, being the MIC the antibiotic concentration corresponding to the cutting point.
(§5) It was performed for the antibiotics vancomycin, linezolid and tedizolid, in absence and presence of silver (½ and 1/10 MIC).

In assay [3] the test system is S. aureus Sa-3 (strain 3). The description is as above. The settings on record: Staphylococcus aureus, strain 3 (S. aureus Sa-3). The format is cell-based. On the procedure: as §4, §5
The subject of assay [4] is S. epidermidis Se-1 (strain 14). The assay is described as above. The class given is cell-based. The settings on record: Staphylococcus epidermidis, strain 14 (S. epidermidis Se-1). Here is the method: as §4, §5
In assay [5] the test system is S. aureus Sa-11 (strain 10). The description is as above. The format is cell-based. The settings on record: Staphylococcus aureus, strain 10 (S. aureus Sa-11). Here is the method:
as §4, §5

Assay [6] concerns S. aureus Sa-10 (strain 9). The description is as above. The format is cell-based. The settings on record: Staphylococcus aureus, strain 9 (S. aureus Sa-10). On the procedure:
as §4, §5

Assay [7] concerns S.aureus ATCC 700698 Sa-SARM (strain 15). The description is as above. The class given is cell-based. The settings on record: Staphylococcus aureus, ATCC700698, strain 15 (S.aureus ATCC 700698, Sa-SARM). Here is the method:
as §4, §5

Assay [8] concerns S. aureus Sa-12 (strain 11). Described as above. The class given is cell-based. The settings on record: Staphylococcus aureus, strain 11 (S. aureus Sa-12). On the procedure: as §4, §5
For assay [9], the system named is S. aureus Sa-9 (strain 8). The description is as above. The format is cell-based. The settings on record: Staphylococcus aureus, strain 8 (S. aureus Sa-9). On the procedure:
as §4, §5

Assay [10] relates to S. aureus Sa-1 (strain 1). Described as above. The format is cell-based. The settings on record: Staphylococcus aureus, strain 1 (S. aureus Sa-1). On the procedure:
as §4, §5

In the next assay the test system is Klebsiella BLEE +. The assay can be described thus: Silver-antibiotics interaction study, MicroScan (Example 4). The class given is cell-based, Klebsiella pneumoniae. The settings on record: subinhibitory colloidal silver (½ or 1/10 MIC). Here is the method:
as §1, §2, §3

Assay [11] concerns Pseudomonas MexR Mutant (efflux pump over-expression). Described as above. The format is cell-based, Pseudomonas aeruginosa. The settings on record: colloidal silver at ½ MIC.
Description: as §2

In another assay the test system is E. coli BLEE +. The assay is described as above. The class given is cell-based, Escherichia coli. The settings on record: subinhibitory colloidal silver (½ or 1/10 MIC). Here is the method: as §1, §2, §3
The mark [12] stands for this setting: MH agar with 1/10 MIC of colargol, read-out: MIC (E-test) MH-1/10 MIC.
Where [13] appears, read: MH agar with ½ MIC of colargol, read-out: MIC (E-test) MH-½ MIC.
Where [14] appears, read: MH agar without silver, read-out: MIC (E-test) MH (without silver).

`CO/N=C(\C(=O)N[C@@H]1C(=O)N2C(C(=O)[O-])=C(C[N+]3(C)CCCC3)CS[C@H]12)c1csc(N)n1` [Cefepime]: the “Effect of silver on the strain's sensitivity to the antibiotic” value (from here on “Effect of silver”) in assay [1] is listed as “moderate effect improving the MIC values”.

Consider `C[C@@H]1O[C@@H]1P(=O)(O)O` [Fosfomicine, Fosfomycin], for which, in assay [1], the “Effect of silver” value is “change to sensitive”.

Consider `CC(=O)NC[C@H]1CN(c2ccc(N3CCOCC3)c(F)c2)C(=O)O1` [Linezolid], for which the MIC in assay [2] (setting [12]) turned out to be 0.38 µg/mL; in assay [2] (setting [13]) it was 0.5 µg/mL; in [2] (setting [14]), 0.5 µg/mL; in assay [3] (setting [12]) it was 1.5 µg/mL; in assay [3] (setting [13]) it was 1 µg/mL; in assay [3] (setting [14]), 1.5 µg/mL. Besides, the MIC in [4] (setting [12]) worked out at 0.75 µg/mL; in [4] (setting [13]), 0.5 µg/mL; in assay [4] (setting [14]), 0.75 µg/mL; in assay [5] (setting [12]) it was 1.5 µg/mL; in assay [5] (setting [13]) it was 1.5 µg/mL; in assay [5] (setting [14]) it was 1.5 µg/mL. The MIC in assay [6] (setting [12]) amounted to 1 µg/mL; in assay [6] (setting [13]), 0.75 µg/mL; in [6] (setting [14]) it was 0.75 µg/mL; in assay [7] (setting [12]), 0.5 µg/mL; in assay [7] (setting [13]), 0.38 µg/mL; in assay [7] (setting [14]), 0.5 µg/mL. The MIC in assay [8] (setting [12]) amounted to 0.5 µg/mL; in [8] (setting [13]) it was 0.5 µg/mL; in assay [8] (setting [14]), 1 µg/mL.

Take `CCN1CCN(C(=O)N[C@@H](C(=O)N[C@@H]2C(=O)N3[C@@H]2SC(C)(C)[C@@H]3C(=O)O)c2ccccc2)C(=O)C1=O` [Piperacillin]: the “Effect of silver” value in assay [1] is listed as “moderate effect improving the MIC values”.

For `Cn1nnc(-c2ccc(-c3ccc(N4C[C@H](CO)OC4=O)cc3F)cn2)n1` [Tedizolid], the MIC is 0.19 µg/mL in assay [3] (setting [12]); 0.125 µg/mL in [3] (setting [13]); 0.19 µg/mL in assay [3] (setting [14]); 0.38 µg/mL in assay [4] (setting [12]); 0.25 µg/mL in [4] (setting [13]); 0.38 µg/mL in assay [4] (setting [14]). The MIC turned out to be 0.19 µg/mL in assay [9] (setting [12]); 0.19 µg/mL in assay [9] (setting [13]); 0.25 µg/mL in [9] (setting [14]); 0.25 µg/mL in [10] (setting [12]); 0.19 µg/mL in assay [10] (setting [13]); 0.19 µg/mL in [10] (setting [14]). The MIC in [5] (setting [13]) is 0.25 µg/mL; in assay [5] (setting [14]), 0.38 µg/mL; in [6] (setting [12]) it was 0.38 µg/mL; in [6] (setting [13]), 0.38 µg/mL; in [6] (setting [14]), 0.5 µg/mL; in assay [8] (setting [13]), 0.25 µg/mL. Besides, the MIC in assay [8] (setting [14]) stood at 0.25 µg/mL.

As to `C[C@H]1[C@H](NC(=O)/C(=N\OC(C)(C)C(=O)O)c2csc(N)n2)C(=O)N1S(=O)(=O)O` [aztreonam, Aztreonam], the “Effect of silver” value is “change to sensitive” in assay [1] and “becomes sensitive” with Klebsiella BLEE +.

Take `CO/N=C(\C(=O)N[C@@H]1C(=O)N2C(C(=O)O)=C(COC(C)=O)CS[C@H]12)c1csc(N)n1` [cefotaxime, Cefotaxime]: the “Effect of silver” value in assay [11] is listed as “improvement in the MIC”.

`NC[C@H]1O[C@H](O[C@H]2[C@H](O)[C@@H](O[C@H]3O[C@H](CO)[C@@H](O)[C@H](N)[C@H]3O)[C@H](N)C[C@@H]2N)[C@H](N)C[C@@H]1O` [tobramycin, Tobramycin]: the “Effect of silver” value in the assay with E. coli BLEE + is listed as “becomes sensitive”.

Regarding Colistin, the “Effect of silver” value in [11] is “improvement in the MIC”; in [1], “moderate effect improving the MIC values”.

For the compound Gentamicin, in the assay on E. coli BLEE +, the “Effect of silver” value is recorded as “becomes sensitive”.

The values are drawn from patent publication US11304974B2, “Nanosystems comprising silver and antibiotics and their use for the treatment of bacterial infections” (priority 2017, dated 2022).
